Test results reported in the NIST ThermoML archive (doi:10.1016/j.jct.2015.02.022).
Structures can show the parent of a compound that is named as a salt.

Assays:
[1] = Liquid; for mass density / viscosity: 101.33 kPa; for mass density: Pycnometric method; for vapor or sublimation pressure: Closed cell (Static) method; for viscosity: Capillary tube (Ostwald / Ubbelohde) method
[2] = refractive index (Na D-line) (dimensionless); details: 293.15 K; 101.33 kPa; Liquid; Standard Abbe refractometry

CCOC(=O)C(F)(F)F [ethyl trifluoroacetate]
[1]
Details | mass density [kg/m3] | vapor or sublimation pressure [kPa] | viscosity [mPa·s]
278.08 K | 1218.9 | – | –
285.15 K | 1205.9 | – | –
289.23 K | 1197.6 | – | –
293.35 K | – | 17.93 | –
293.45 K | – | – | 0.4635
293.68 K | 1188.3 | – | –
296.02 K | – | – | 0.4506
298.3 K | – | 22.86 | –
298.63 K | – | – | 0.4356
298.84 K | 1179 | – | –
300.75 K | – | 25.36 | –
301.19 K | – | – | 0.4234
303.35 K | – | 28.45 | –
303.75 K | – | – | 0.4107
303.86 K | 1168 | – | –
305.85 K | – | 31.2 | –
306.3 K | – | – | 0.3986
307.89 K | 1160.9 | – | –
308.35 K | – | 34.13 | –
308.85 K | – | – | 0.3881
310.85 K | – | 38 | –
311.33 K | – | – | 0.3775
312.65 K | 1151.4 | – | –
313.35 K | – | 42.3 | –
313.93 K | – | – | 0.3674
315.85 K | – | 47.2 | –
316.43 K | – | – | 0.3581
317.43 K | 1142.2 | – | –
318.4 K | – | 52 | –
318.96 K | – | – | 0.3497
320.97 K | – | 57.2 | –
321.63 K | – | – | 0.3399
322.5 K | 1131.3 | – | –
323.45 K | – | 63.2 | –
324.15 K | – | – | 0.3314
326.15 K | – | 70.64 | –
326.69 K | – | – | 0.323
328.75 K | – | 77.9 | –
329.16 K | – | – | 0.3153
331.45 K | – | 86.5 | –
331.64 K | – | – | 0.3075
334.05 K | – | 94.15 | –
334.32 K | – | – | 0.3009
335.25 K | – | 99.92 | –
335.65 K | – | 101.33 | –

Details | refractive index
[2] | 1.3086

CO [methanol]
[1]
Details | vapor or sublimation pressure [kPa] | viscosity [mPa·s]
293.35 K | 13.54 | –
302.45 K | – | 0.513
303.35 K | 22.05 | –
310.85 K | 31.07 | –
313.5 K | – | 0.443
320.97 K | 49.45 | –
323.55 K | – | 0.386
331.45 K | 77.05 | –
333.85 K | – | 0.345
335.95 K | 95.83 | –
